Test [1] has as its system human renal microvascular endothelial cells. As to the kind of experiment: Solid phase cell attachment assay (HRMEC). It counts as cell-based. How it is done:
Solid phase cell attachment assays. Forty-eight-well plates (Falcon) were coated with a layer of nitrocellulose (Schleicher & Schuell) and allowed to air dry as described (47). Coated wells were incubated overnight at 4° C. with PBS containing matrix proteins at the indicated concentrations alone (no addition, NA) or in combination with dimeric EphrinB1/Fc. Two hours prior to assay, wells were washed twice then blocked at 37° C. with 1% BSA. Serum starved cells were harvested in 2 mM EDTA in PBS (HEK293) or recovered by trypsinization (HRMEC), washed twice in serum free medium containing 1% BSA, then plated at a density of 0.7-1×10^5 cells per well. After incubation at 37° C. for 1 hour (or as specified), unattached cells were dislodged by 5 brisk slaps of the plate on a horizontal surface. Wells were gently washed with PBS until cells were […] to albumin-coated wells. Adherent cells were fixed with 2% glutaraldehyde, stained with 0.5% crystal violet (in EtOH), and quantified by OD reading at 570 nm. In experiments using competitive peptides or blocking antibodies, cells were preincubated with the indicated peptides (100 μM) or antibodies (10 μg/ml) for 15 min at RT before plating. Results representative of three independent experiments are given as OD values and represent the mean of duplicate or triplicate wells±SEM. […]

Another test relates to HRMEC. As to the kind of experiment: Endothelial assembly into capillary-like structures (HRMEC). The class given is cell-based, human. To be noted: HRMEC on Matrigel, two dimensional in vitro assay, 8 h. How it is done: Endothelial assembly into capillary-like structures. Twelve well plates (Falcon) were coated with thin layers of Matrigel. HRMEC were plated at a density of 4×10^4 cells/well in DME containing 1% fetal bovine serum. Indicated agonists, control peptides, alone, or in combination with the EphB1/Fc antagonist (1000 ng ml^−1) (FIG. 5) were added at the time of plating. Cells were incubated at 37° C. for 8 h and photographed using phase microscopy (magnification 100×) (Diaphot-TMD, Nikon).

Data on 3 molecules can be found in patent US20030157712A1, “Methods for determining cell responses through EphB receptors” (priority 1997, published 2003).

“GRGDSPK [RGD peptide, reference compound]”: the “support of the ephrin-B1 induced increase in endothelial attachment” value in test [1] (peptide-coated 48-well plates) is on record as “sufficient”. On to `CCCCCCCCCCCCCC(=O)O[C@@H]1[C@@H](C)[C@@]2(O)[C@@H](C=C(CO)C[C@]3(O)C(=O)C(C)=C[C@@H]23)[C@@H]2C(C)(C)[C@]12OC(C)=O` [phorbol myristate acetate, reference compound], for which the endothelial capillary-like assembly result in the test with HRMEC is listed as “stimulated”. For fibrinogen [reference compound], in test [1] (nitrocellulose surface), the “threshold surface density of adsorbed matrix protein required to promote attachment” value was “approximately 1 ug/cm^2”.
